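Results reflect a 48-hour exposure of cells in 96-well plates to compound at five concentrations. The concentration for 50% growth inhibition is given as GI50.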 Calls of active or inactive are those of the source. No stated cut-off is given here; in the data, active = GI50 up to about 1.1 µM and inactive = higher.
Assays:
Test in all cases: NCI tumour cell line growth inhibition, 48 h
SNB-19 = test system: SNB-19
SK-MEL-2 = test system: SK-MEL-2
SN12C = test system: SN12C
K562 = test system: K562
RXF 393 = test system: RXF 393
HT-29 = test system: HT-29
UACC-257 = test system: UACC-257
HCC 2998 = test system: HCC 2998
SR = test system: SR
LOX IMVI = test system: LOX IMVI
HCT-116 = test system: HCT-116
NCI-H226 = test system: NCI-H226
KM12 = test system: KM12
RPMI-8226 = test system: RPMI-8226
TK-10 = test system: TK-10
COLO 205 = test system: COLO 205
HL-60 = test system: HL-60
Hs-578T = test system: Hs-578T
HCT-15 = test system: HCT-15

Measured: GI50

CC(=O)OCC(Br)C1(C)CCC(C(C)(C)Br)O1 (stereo not given)
inactive: SNB-19 > 100 µM | SK-MEL-2 39.1 µM | SN12C 94.2 µM | K562 > 100 µM | RXF 393 51.1 µM | HT-29 62.7 µM | UACC-257 12.1 µM | HCC 2998 98.6 µM | SR 77.1 µM | LOX IMVI 23.1 µM | HCT-116 46.8 µM | NCI-H226 32.8 µM | KM12 39.8 µM | RPMI-8226 > 100 µM | TK-10 > 100 µM | COLO 205 51.2 µM | HL-60 > 100 µM | Hs-578T 17.9 µM

COC12OC3CC4(C)C(=CC3OC(OC(C)C1O)C2O)CCC1C4CCC2(C)C(c3ccc(=O)oc3)CCC12O (stereo not given)
0.00216 µM: HCT-15
active: SNB-19 0.00213 µM | SK-MEL-2 0.00205 µM | SN12C < 0.001 µM | K562 0.00237 µM | RXF 393 0.00234 µM | HT-29 0.00139 µM | UACC-257 0.00283 µM | HCC 2998 0.00338 µM | SR 0.0014 µM | LOX IMVI 0.00137 µM | HCT-116 0.00136 µM | NCI-H226 0.00246 µM | KM12 0.00247 µM | RPMI-8226 0.00177 µM | TK-10 0.00122 µM | COLO 205 0.00196 µM | HL-60 0.00139 µM | Hs-578T < 0.001 µM

N#CC1=C(N2CCOCC2)CCC1
inactive: SNB-19 > 100 µM | SK-MEL-2 > 100 µM | SN12C > 100 µM | K562 > 100 µM | RXF 393 > 100 µM | HT-29 > 100 µM | UACC-257 > 100 µM | HCC 2998 > 100 µM | SR > 100 µM | LOX IMVI > 100 µM | HCT-116 > 100 µM | NCI-H226 > 100 µM | KM12 > 100 µM | RPMI-8226 > 100 µM | TK-10 > 100 µM | COLO 205 > 100 µM | HL-60 > 100 µM | Hs-578T > 100 µM
> 100 µM: HCT-15

O=C(/C=C/c1ccco1)c1cccc(C(=O)/C=C/c2ccco2)n1
4.92 µM: HCT-15
active: HL-60 0.0409 µM
inactive: SNB-19 8.41 µM | SK-MEL-2 25.5 µM | SN12C 12.6 µM | K562 2.91 µM | RXF 393 25.5 µM | HT-29 5.07 µM | UACC-257 60.7 µM | HCC 2998 > 75.9 µM | SR 1.37 µM | LOX IMVI 1.78 µM | HCT-116 2.78 µM | NCI-H226 > 100 µM | KM12 3.98 µM | RPMI-8226 1.87 µM | TK-10 41.2 µM | COLO 205 23.6 µM | Hs-578T 4.4 µM

OCCCc1ccc2c(c1)[C@H](CO)[C@@H](c1ccc(O)cc1)O2
> 100 µM: HCT-15
inactive: SNB-19 > 100 µM | SK-MEL-2 > 100 µM | SN12C > 100 µM | K562 > 100 µM | RXF 393 > 100 µM | HT-29 > 100 µM | UACC-257 46 µM | HCC 2998 16.6 µM | SR 33.6 µM | LOX IMVI > 100 µM | HCT-116 > 100 µM | NCI-H226 > 100 µM | KM12 82.4 µM | RPMI-8226 26 µM | TK-10 > 100 µM | COLO 205 > 100 µM | HL-60 78.2 µM | Hs-578T 19.5 µM

C=C(CC)C(=O)c1ccc(OCC(=O)O)c(Cl)c1Cl [ETHACRYNIC ACID]
22.6 µM: HCT-15
inactive: SNB-19 15.6 µM | SK-MEL-2 17.1 µM | SN12C 20 µM | K562 53 µM | RXF 393 18.2 µM | HT-29 17.9 µM | UACC-257 18.9 µM | HCC 2998 17.8 µM | SR 31.6 µM | LOX IMVI 14.7 µM | HCT-116 23.1 µM | NCI-H226 15.5 µM | KM12 5.5 µM | RPMI-8226 14.5 µM | TK-10 16.1 µM | COLO 205 19 µM | HL-60 28.3 µM | Hs-578T 20.5 µM

COc1cc(/C=C2\N=C(c3ccccc3)N(c3nc4ccccc4s3)C2=O)cc(OC)c1OC
active: RPMI-8226 0.352 µM
inactive: SNB-19 34.2 µM | SK-MEL-2 90.8 µM | SN12C 26.5 µM | K562 16.5 µM | RXF 393 18.8 µM | HT-29 26.9 µM | UACC-257 > 100 µM | HCC 2998 27.4 µM | SR 11.7 µM | LOX IMVI 36.4 µM | HCT-116 35 µM | NCI-H226 > 100 µM | KM12 31.3 µM | TK-10 > 100 µM | HL-60 60.5 µM | Hs-578T 17.3 µM
30.3 µM: HCT-15

COc1ccc(/C=C2\C[C@H]3[C@@H]4CCC5=C[C@@H](N6CCCC6)CC[C@]5(C)[C@H]4CC[C@]3(C)[C@H]2O)cc1
active: HT-29 0.728 µM | SR 1.01 µM
inactive: SNB-19 4.61 µM | SK-MEL-2 1.88 µM | SN12C 4.8 µM | K562 2.16 µM | RXF 393 1.52 µM | UACC-257 1.4 µM | HCC 2998 1.31 µM | LOX IMVI 1.78 µM | HCT-116 1.98 µM | NCI-H226 3.13 µM | KM12 2.34 µM | RPMI-8226 2.97 µM | TK-10 2.43 µM | COLO 205 1.67 µM | HL-60 1.95 µM | Hs-578T 2.69 µM
1.4 µM: HCT-15

CC(C)CCC[C@@H](C)[C@H]1CC[C@H]2[C@@H]3CC[C@H]4C[C@@H](CCC=C(c5cc(Cl)c(O)c(C(=O)O)c5)c5cc(Cl)c(O)c(C(=O)O)c5)CC[C@]4(C)[C@H]3CC[C@]12C
inactive: SNB-19 > 100 µM | SK-MEL-2 > 100 µM | SN12C > 100 µM | K562 > 100 µM | RXF 393 > 100 µM | HT-29 > 100 µM | UACC-257 > 100 µM | HCC 2998 > 100 µM | SR > 100 µM | LOX IMVI > 100 µM | HCT-116 > 100 µM | NCI-H226 > 100 µM | KM12 > 100 µM | RPMI-8226 > 100 µM | TK-10 > 100 µM | COLO 205 > 100 µM | HL-60 > 100 µM | Hs-578T > 100 µM
> 100 µM: HCT-15

O=C1Nc2ccccc2/C1=C/c1ccccc1
inactive: SNB-19 14.5 µM | SK-MEL-2 14.3 µM | SN12C 14.1 µM | K562 27.7 µM | RXF 393 9.27 µM | HT-29 22.6 µM | UACC-257 15 µM | HCC 2998 15.8 µM | SR 14.4 µM | LOX IMVI 13.2 µM | HCT-116 14 µM | NCI-H226 17.1 µM | KM12 15.3 µM | RPMI-8226 18.2 µM | TK-10 21.7 µM | COLO 205 16.8 µM | HL-60 14.6 µM | Hs-578T 24.1 µM
14 µM: HCT-15

CCc1nc(N)nc(N)c1-c1ccc(Cl)cc1 [PYRIMETHAMINE]
inactive: SNB-19 32.8 µM | SK-MEL-2 38.4 µM | SN12C 3.33 µM | RXF 393 > 76.4 µM | HT-29 4.25 µM | UACC-257 12.5 µM | HCC 2998 6.25 µM | SR 4.24 µM | LOX IMVI 6.19 µM | HCT-116 6.14 µM | NCI-H226 42.6 µM | KM12 11.6 µM | RPMI-8226 34.6 µM | TK-10 21.7 µM | COLO 205 18.9 µM | HL-60 2.38 µM | Hs-578T > 58.2 µM
active: K562 0.542 µM
3.94 µM: HCT-15

CC(C)(C)OC(=O)N/N=C(/N)Cc1ccccc1
> 100 µM: HCT-15
inactive: SNB-19 > 100 µM | SK-MEL-2 > 100 µM | SN12C > 100 µM | K562 > 100 µM | RXF 393 > 100 µM | HT-29 > 100 µM | UACC-257 > 100 µM | HCC 2998 > 100 µM | SR > 100 µM | LOX IMVI > 100 µM | HCT-116 > 100 µM | NCI-H226 > 100 µM | KM12 > 100 µM | RPMI-8226 > 100 µM | TK-10 > 100 µM | COLO 205 > 100 µM | HL-60 > 100 µM | Hs-578T > 100 µM

CC1(C)OC([C@H](O)CO)C([C@H]2NCCS2)O1 (stereo not given in full)
> 100 µM: HCT-15
inactive: SNB-19 > 100 µM | SK-MEL-2 > 100 µM | K562 > 100 µM | RXF 393 > 100 µM | HT-29 > 100 µM | UACC-257 > 100 µM | HCC 2998 > 100 µM | SR > 100 µM | LOX IMVI > 100 µM | HCT-116 > 100 µM | NCI-H226 > 100 µM | KM12 > 100 µM | RPMI-8226 > 100 µM | TK-10 > 100 µM | COLO 205 > 100 µM | HL-60 > 100 µM | Hs-578T > 100 µM

Cc1c(NC(=O)CSC(=S)N2CCN(Cc3ccccc3)CC2)c(=O)n(-c2ccccc2)n1C
> 100 µM: HCT-15
inactive: SNB-19 > 100 µM | SK-MEL-2 > 100 µM | SN12C > 100 µM | K562 > 100 µM | RXF 393 > 100 µM | HT-29 > 100 µM | UACC-257 > 100 µM | HCC 2998 28.4 µM | SR > 100 µM | LOX IMVI > 100 µM | HCT-116 > 100 µM | NCI-H226 > 100 µM | KM12 > 100 µM | RPMI-8226 > 100 µM | TK-10 > 100 µM | COLO 205 > 100 µM | Hs-578T > 100 µM

O=C1Cc2c([nH]c3ccc(Br)cc23)-c2ccccc2N1 [KENPAULLONE]
inactive: SNB-19 > 78.5 µM | SK-MEL-2 > 100 µM | SN12C > 100 µM | K562 > 54.8 µM | RXF 393 5.11 µM | HT-29 5.19 µM | UACC-257 > 100 µM | HCC 2998 > 100 µM | SR 4.21 µM | LOX IMVI 5.35 µM | NCI-H226 > 100 µM | KM12 2.73 µM | RPMI-8226 > 20.5 µM | TK-10 > 100 µM | COLO 205 > 100 µM | HL-60 5.21 µM | Hs-578T > 100 µM
4.46 µM: HCT-15

Reference: ChEMBL document CHEMBL1201862, “PubChem BioAssay data set” (2004)
